Data from patent US8377911B2, “Diuretics” (Merck Sharp & Dohme Corp., priority 2009, dated 2013).

Tested on: Male beagle dogs
Assay: canine telemetry protocol, blood pressure reduction efficacy
Assay type: in vivo
Conditions: telemetered male beagle dogs, 3 mg/kg, oral gavage
Procedure: Compounds of the invention were evaluated for blood pressure reduction efficacy using the following canine telemetry protocol.
Male beagle dogs (approximately 1-3 years old) with a body weight of between 10 and 16 kg were surgically implanted with DSI radiotelemetry devices (model: TL11M2-D70-PCT). Briefly, under an inhalant anesthesia, isoflurane/oxygen mixture (1-3.5%/to effect), the body of the telemetry device was positioned and secured intra-abdominally. Subsequently, the arterial catheter of the telemetry device was passed subcutaneously to the inguinal area and introduced into the femoral artery and advanced to the level of the descending aorta. The catheter was secured with 2-0 silk ligatures. The muscle and underlying fascia was closed over the catheter using absorbable suture and the skin was closed using non-absorbable suture. The animals were allowed a minimum recovery period of 2 weeks between surgery and the evaluation of test compounds.
Compound evaluation consisted of a 3 day paradigm at a 3 mg/kg dose. On the first day, no compounds were administered during a 24 hour period of baseline data collection. Blood pressure and heart rate data were collected continuously for one minute periods at 10 minute intervals. On the days of compound administration half the animals received test article with the other half receiving the vehicle used for compound formulation. All test materials were administered by oral gavage in a volume of 1 mL/kg. Data are expressed either as raw values (mm Hg or beats per minute) or as the change from baseline (average value for about 12 hours in low activity period prior to dosing). Change is SBP (systolic blood pressure) and PP (pulse pressure) over time is shown below: […]

SMILES | ΔPP (pulse pressure), change from baseline, 1-6 h [mm Hg] | ΔSBP (systolic blood pressure), change from baseline, 1-6 h [mm Hg] | ΔPP (pulse pressure), change from baseline, 6-12 h [mm Hg] | ΔSBP (systolic blood pressure), change from baseline, 6-12 h [mm Hg] | ΔPP (pulse pressure), change from baseline, 12-18 h [mm Hg] | ΔSBP (systolic blood pressure), change from baseline, 12-18 h [mm Hg]
CCCCON=[N+]([O-])N1CCC[C@H]1C(=O)Oc1c(C)ncc2c1CO[C@H]2c1ccc(Cl)cc1 (stereo in doubt) [Example 1, (3S)-3-(4-Chlorophenyl)-6-methyl-1,3-dihydrofuro[3,4-c]pyridin-7-yl 1-[(Z)-butoxy-NNO-azoxy]-L-prolinate] | −14.0 | −15.4 | −6.4 | −6.2 | −3.2 | −0.6
Cc1ncc2c(c1OC(=O)[C@@H]1CCCN1[N+]([O-])=NOCC(C)C)CO[C@H]2c1ccc(Cl)cc1 (stereo in doubt) [Example 5, (3S)-3-(4-Chlorophenyl)-6-methyl-1,3-dihydrofuro[3,4-c]pyridin-7-yl 1-[(Z)-2-methylpropoxy-NNO-azoxy]-L-prolinate] | −3.6 | −2.4 | −1.7 | −2.6 | −2.6 | −2.8
CCCC(C)ON=[N+]([O-])N1CCC[C@H]1C(=O)Oc1c(C)ncc2c1CO[C@H]2c1ccc(Cl)cc1 (stereo in doubt) [Example 9, (3S)-3-(4-Chlorophenyl)-6-methyl-1,3-dihydrofuro[3,4-c]pyridin-7-yl 1-[(Z)-pentan-2-yloxy-NNO-azoxy]-L-prolinate] | −10.6 | −11.8 | −5.2 | −6.6 | −2.5 | 1.0
CC[C@H](C)CON=[N+]([O-])N1CCC[C@H]1C(=O)Oc1c(C)ncc2c1CO[C@H]2c1ccc(Cl)cc1 (stereo in doubt) [Example 10, (3S)-3-(4-Chlorophenyl)-6-methyl-1,3-dihydrofuro[3,4-c]pyridin-7-yl 1-((Z)-{[(2S)-2-methylbutyl]oxy}-NNO-azoxy)-L-prolinate] | 0.6 | −5.3 | 3.4 | −0.9 | 3.8 | −3.1
Cc1ncc2c(c1OC(=O)[C@@H]1CCCN1[N+]([O-])=NOC1CCCCC1)CO[C@H]2c1ccc(Cl)cc1 (stereo in doubt) [Example 11, (3S)-3-(4-Chlorophenyl)-6-methyl-1,3-dihydrofuro[3,4-c]pyridin-7-yl 1-[(Z)-cyclohexyloxy-NNO-azoxy]-L-prolinate] | −6.9 | −9.3 | −2.3 | −3.3 | 0.9 | 3.9
CCCCO/N=[N+](\[O-])N1CCC(C(=O)Oc2c(C)ncc3c2CO[C@H]3c2ccc(Cl)cc2)CC1 [Example 12, (3S)-3-(4-Chlorophenyl)-6-methyl-1,3-dihydrofuro[3,4-c]pyridin-7-yl 1-[(Z)-butoxy-NNO-azoxy]piperidine-4-carboxylate] | −12 | −11 | −5.8 | −5.8 | 0.8 | 3.3
